# Measurements as given in US9469650B2, “Melampomagnolide B derivatives” (BOARD OF TRUSTEES OF THE UNIVERSITY OF ARKANSAS, priority 2013, dated 2016).
# Legend:
# AML 052308 cells = assay: cells; settings: read-out: LC50
# Source text: Derivatives were screened for antileukemic activity against AML cells in culture (See FIGS. 1-7).
SMILES,CC50 (SR) [µM],CC50 (HOP-62) [µM],CC50 (COLO 205) [µM],CC50 (KM12) [µM],CC50 (SF-539) [µM],CC50 (MALME-3M) [µM],CC50 (MDA-MB-435) [µM],CC50 (SK-MEL-5) [µM],CC50 (ACHN) [µM],CC50 (TK-10) [µM],CC50 (MDA-MB-468) [µM],CC50 (AML 052308 cells) [µM],CC50 (HCT-116) [µM],CC50 (OVCAR-3) [µM],CC50 (RPMI-8226) [µM]
C=C1C(=O)O[C@H]2[C@H]1CC/C(COC(=O)NCCN1CCCCC1)=C\CC[C@@]1(C)O[C@@H]21 [JVM 2-13],> 100,68.5,7.75,61.6,48.4,50.6,43.8,58.3,45.6,35.8,28.5,–,–,–,–
C=C1C(=O)O[C@H]2[C@H]1CC/C(COC(=O)OCCCN1CCCCC1)=C\CC[C@@]1(C)O[C@@H]21 [JVM 2-26],–,–,–,–,–,–,–,–,–,–,–,5,–,–,–
C=C1C(=O)O[C@H]2[C@H]1CC/C(COC(=O)N1CCN(C)CC1)=C\CC[C@@]1(C)O[C@@H]21 [JVM 2-44],> 100,> 100,64.8,68.9,55.1,65.4,57.5,58.7,52.6,41.6,48.7,–,48,42.3,–
C=C1C(=O)O[C@H]2[C@H]1CC/C(COC(=O)NCCO)=C\CC[C@@]1(C)O[C@@H]21 [JVM 2-50],> 100,> 100,50.7,–,56.2,73.3,52,> 100,71.1,52.3,49.1,–,–,47.3,> 100
C=C1C(=O)O[C@H]2[C@H]1CC/C(COC(=O)NC)=C\CC[C@@]1(C)O[C@@H]21 [JVM 2-57],> 100,59.5,–,55.9,42.9,55,53.1,66,43.3,31.8,49,–,33.6,34.3,90.3
C=C1C(=O)O[C@H]2[C@H]1CC/C(COC(=O)N1CCC(F)(F)CC1)=C\CC[C@@]1(C)O[C@@H]21 [JVM 2-66],> 100,58.3,8.44,54.5,12.3,21.6,95.1,40.3,–,23.5,11.5,–,7.75,9.62,> 100
C=C1C(=O)O[C@H]2[C@H]1CC/C(COC(=O)CCC(=O)N1CCC(C)CC1)=C\CC[C@@]1(C)O[C@@H]21 [JVM 2-70],> 100,74.9,31.9,56.6,–,53.6,61.9,47.8,43.5,36.3,–,–,11.9,32.5,> 100
"C=C1C(=O)O[C@H]2[C@H]1CC/C(COC(=O)Nc1n[nH]c(SC)n1)=C\CC[C@@]1(C)O[C@@H]21 [JVM 64, ((1aR,7aS,10aS,10bS,E)-1a-methyl-8-methylene-9-oxo-1a,2,3,6,7,7a,8,9,10a,10b-decahydrooxireno[2′,3′:9,10]cyclodeca[1,2-b]furan-5-yl)methyl-(5-(methylthio)-1H-1,2,4-triazol-3-yl)carbamate]",–,–,–,–,–,–,–,–,–,–,–,7.4,–,–,–
C=C1C(=O)O[C@H]2[C@H]1CC/C(COC(=S)n1ccnc1)=C\CC[C@@]1(C)O[C@@H]21 [JVM 66],–,–,–,–,–,–,–,–,–,–,–,2.6,–,–,–
